Results: article doi:10.1101/2022.06.11.495772v2 (biorxiv, 2022)
Square brackets hold non-standard residues; d marks the D form. Peptide text beside a SMILES is read from it. NMeY = CN[C@@H](Cc1ccc(O)cc1)C(=O)O; NMeT = CN[C@H](C(=O)O)[C@@H](C)O; NMeL = CN[C@@H](CC(C)C)C(=O)O

Legend:
HsMetAP1 = HsMetAP1 (Homo sapiens, UniProt P53582); test: biochemical
HsMetAP2 = HsMetAP2 (Homo sapiens, UniProt P50579); test: biochemical
EcMetAP [1] = molecular target: T1, EcMetAP (Escherichia coli, UniProt P0AE18); test: biochemical
T1 sequence (P0AE18 2-264): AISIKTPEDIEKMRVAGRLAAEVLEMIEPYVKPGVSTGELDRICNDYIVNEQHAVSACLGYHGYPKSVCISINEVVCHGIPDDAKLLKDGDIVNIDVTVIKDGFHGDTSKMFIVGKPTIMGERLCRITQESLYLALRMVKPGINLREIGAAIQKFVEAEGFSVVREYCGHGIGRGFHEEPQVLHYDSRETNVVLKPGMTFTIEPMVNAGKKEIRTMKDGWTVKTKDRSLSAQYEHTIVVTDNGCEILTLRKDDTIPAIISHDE

EcMetAP [2] = molecular target: T1, EcMetAP; test: coupled fluorogenic Met-Gly-Pro-AMC / DPPIV assay; type: biochemical

Sequence of HsMetAP2 (P50579 2-478): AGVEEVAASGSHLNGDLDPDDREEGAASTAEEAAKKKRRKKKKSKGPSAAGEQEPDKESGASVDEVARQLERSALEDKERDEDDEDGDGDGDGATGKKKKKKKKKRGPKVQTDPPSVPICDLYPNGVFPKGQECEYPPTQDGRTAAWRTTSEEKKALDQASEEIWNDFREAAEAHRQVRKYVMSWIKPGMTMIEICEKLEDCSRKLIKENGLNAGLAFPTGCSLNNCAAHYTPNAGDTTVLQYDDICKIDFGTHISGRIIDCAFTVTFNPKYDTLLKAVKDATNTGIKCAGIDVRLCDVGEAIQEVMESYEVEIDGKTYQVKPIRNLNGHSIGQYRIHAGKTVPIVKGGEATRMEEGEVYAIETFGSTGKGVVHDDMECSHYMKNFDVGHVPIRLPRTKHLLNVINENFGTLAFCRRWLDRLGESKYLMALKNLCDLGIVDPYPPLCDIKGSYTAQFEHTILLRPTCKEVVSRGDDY

| SMILES | IC50 (HsMetAP1) [mM] | IC50 (HsMetAP2) [mM] | IC50 (EcMetAP [1]) [mM] | IC50 (EcMetAP [2]) [nM] |
| --- | --- | --- | --- | --- |
| CN[C@@H](Cc1ccc(O)cc1)C(=O)N(C)[C@H](C(=O)N(C)[C@@H](CC(C)C)C(=O)OC)[C@@H](C)OC [NMe-Monomer] (H-[NMeY]-[NMeT](Me)-[NMeL]-OMe) | > 2 | > 2 |  |  |
| CO[C@@H]1[C@H](OC(=O)NC(=O)CCl)CC[C@]2(CO2)[C@H]1[C@@]1(C)O[C@@H]1CC=C(C)C [TNP-470] | > 2 | 0.00069 ± 5e-05 | > 2 |  |
| CCCCCCCCCCCCCC(=O)O[C@H]1CC[C@H](NC(=O)[C@H](OC)[C@H](O)[C@@H](O)[C@H](O)/C=C/C(C)C)C(=O)N(C)C1 [bengamide B] |  |  | > 2 |  |
| CC(C)CC1C(=O)OC(C)C(N(C)C(=O)C(Cc2ccc(O)cc2)N(C)C)C(=O)N(C)C(CC(C)C)C(=O)OC(C)C(N(C)C(=O)C(Cc2ccc(O)cc2)N(C)C)C(=O)N1C (stereo not shown) [metapeptin A] | > 2 | > 2 | > 2 |  |
| CNC(Cc1ccc(O)cc1)C(=O)N(C)C1C(=O)N(C)C(CC(C)C)C(=O)OC(C)C(N(C)C(=O)C(Cc2ccc(O)cc2)N(C)C)C(=O)N(C)C(CC(C)C)C(=O)OC1C (stereo not shown) [metapeptin B] | 0.0497 ± 0.00398 | > 2 | 0.00047 ± 0.00029 | ~500 |
